According to patent publication US6419907B1, “Use of cupric complex of 3,5-disopropylsalicylic acid by way of a cosmetic product and cosmetic compositions containing this compound for protecting the human epidermis against UV radiation” (L'Oreal, priority 1987, dated 2002):

Tested on: skin
Assay: application on the skin against injuries caused by solar/UV radiation
Format: in vivo
Settings: persists in the presence of sunscreens

With `CC(C)c1cc2c(c(C(C)C)c1)[O][Cu]1([O]C2=O)[O]C(=O)c2cc(C(C)C)cc(C(C)C)c2[O]1` [copper (II) bis(3,5-diisopropylsalicylate)] the “intensity of the solar erythema” value was “reduced” and the “number of degraded keratinocytes” value was “reduced”.
